Measurements: patent US20110003688A1, “Pesticidal Compound Mixtures” (Bayer CropScience AG, priority 2007, published 2011)

Columns and labels:
Format in all cases: in vivo
Settings in all cases: mortality
[1] = tested on: green peach aphid (Myzus persicae); assay: Myzus persicae test (sprayed infested cabbage leaves)
Protocol: (§1) To produce a suitable preparation of active compound, 1 part by weight of active compound is mixed with the stated amount of solvent and emulsifier, and the concentrate is diluted with emulsifier-containing water to the desired concentration.
Cabbage leaves (Brassica oleracea) which are heavily infested by the green peach aphid (Myzus persicae) are treated by being sprayed with the preparation of the active compound at the desired concentration.
(§2) After the specified period of time, the mortality in % is determined. 100% means that all the aphids have been killed; 0% means that none of the aphids have been killed.

[2] = tested on: cotton aphid (Aphis gossypii); assay: Aphis gossypii test (sprayed infested cotton leaves)
Protocol: as §1
Cotton leaves (Gossypium hirsutum) which are heavily infested by the cotton aphid (Aphis gossypii) are treated by being sprayed with the preparation of the active compound at the desired concentration.
as §2

[3] = tested on: larvae of the fall army worm (Spodoptera frugiperda); assay: Spodoptera frugiperda test (sprayed cabbage leaves infested with larvae)
Protocol: as §1
Cabbage leaves (Brassica oleracea) are treated by being sprayed with the preparation of the active compound at the desired concentration and are infested with larvae of the fall army worm (Spodoptera frugiperda) as long as the leaves are still moist.
(§3) After the specified period of time, the mortality in % is determined. 100% means that all the caterpillars have been killed; 0% means that none of the caterpillars have been killed.

[4] = tested on: larvae of the beet army worm (Spodoptera exigua); assay: Spodoptera exigua test (sprayed cabbage leaves infested with larvae)
Protocol: as §1
Cabbage leaves (Brassica oleracea) are treated by being sprayed with the preparation of the active compound at the desired concentration and are infested with larvae of the beet army worm (Spodoptera exigua) as long as the leaves are still moist.
as §3

With CC1(C)[C@H](C(=O)O[C@H](C#N)c2cccc(Oc3ccccc3)c2)[C@@H]1/C=C(\Cl)C(F)(F)F [L-Cyhalothrin, lambda-cyhalothrin] the “Efficacy in % after 6 days” value ([1]; 0.8 ppm) was 45%.
For CC1(C)C(C=C(Cl)Cl)C1C(=O)OC(C#N)c1ccc(F)c(Oc2ccccc2)c1 (stereo not drawn) [β-Cyfluthrin, beta-cyfluthrin], the “Efficacy in % after 6 days” value ([1]; 0.8 ppm) was 75%.
CC1(C)C(C=C(Cl)Cl)C1C(=O)OC(C#N)c1ccc(F)c(Oc2ccccc2)c1 (centres unmarked) [Cyfluthrin, cyfluthrin] was tested, and the “Efficacy in % after 1 day” value ([2]; 0.8 ppm) was 25%.
In the case of CC1(C)[C@H](C(=O)O[C@H](C#N)c2cccc(Oc3ccccc3)c2)[C@@H]1C=C(Br)Br [Deltamethrin, deltamethrin], the “Efficacy in % after 1 day” value ([1]; 0.8 ppm) was 50%, the “Efficacy in % after 4 days” value ([3]; 0.8 ppm) was 70% and the “Efficacy in % after 4 days” value ([4]; 0.16 ppm) was 0%.
For CC[S+]([O-])c1c(C#N)nn(-c2c(Cl)cc(C(F)(F)F)cc2Cl)c1N (centres unmarked) [Ethiprole, ethiprole], the “Efficacy in % after 1 day” value ([1]; 4 ppm) was 0%, the “Efficacy in % after 6 days” value ([1]; 4 ppm) was 0% and the “Efficacy in % after 4 days” value ([3]; 4 ppm) was 40%. For the same compound, the “Efficacy in % after 1 day” value ([2]; 4 ppm) was 30% and the “Efficacy in % after 4 days” value ([4]; 0.8 ppm) was 0%.
